Reference: PubChem BioAssay AID330 (DTP/NCI, 2004)
Values joined by “and” are separate entries in the source; they are usually repeats but may differ in a detail not shown here. Equal values may be shown once. Inconclusive results and toxic doses are left out. The calls were made as follows: active = survival T/C of 150% or more; inactive = T/C below 125% in these data.

Test system: P388 leukemia ip, CD2F1 mice, survival T/C
Test: NCI In Vivo Anticancer Drug Screen. Data for tumor model P388 Leukemia (intraperitoneal) in CD2F1 (CDF1) mice
Settings: endpoint: median survival time, higher = longer survival
Outline: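 Mice carrying the transplanted tumor received test compound or vehicle. Survival was recorded in each group, and the value is the treated-group measurement divided by that of the vehicle-treated control group.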

[1] = dose: 50.0 mg/kg/injection, schedule: Q01DX005 (ip), vehicle: Klucel (hydroxypropylcellulose) (HPC)
[2] = dose: 100.0 mg/kg/injection, schedule: Q01DX005 (ip), vehicle: Klucel (hydroxypropylcellulose) (HPC)
[3] = dose: 200.0 mg/kg/injection, schedule: Q01DX005 (ip), vehicle: Klucel (hydroxypropylcellulose) (HPC)
[4] = dose: 12.5 mg/kg/injection, schedule: Q01DX005 (ip), vehicle: saline with Tween-80
[5] = dose: 25.0 mg/kg/injection, schedule: Q01DX005 (ip), vehicle: saline with Tween-80
[6] = dose: 50.0 mg/kg/injection, schedule: Q01DX005 (ip), vehicle: saline with Tween-80
[7] = dose: 100.0 mg/kg/injection, schedule: Q01DX005 (ip), vehicle: saline with Tween-80
[8] = dose: 200.0 mg/kg/injection, schedule: Q01DX005 (ip), vehicle: saline with Tween-80

Measured: T/C

COc1cccc2c1C(=O)c1c(O)c3c(c(O)c1C2=O)C[C@@](O)(/C(CO)=N/NS(=O)(=O)c1ccc(C)cc1)C[C@@H]3OC1CC(N)C(O)C(C)O1 (stereo partly specified)
inactive: dose: 0.2 mg/kg/injection, schedule: Q01DX009 (ip), vehicle: water 105 % of control | dose: 0.39 mg/kg/injection, schedule: Q01DX009 (ip), vehicle: water 112 % of control | dose: 0.78 mg/kg/injection, schedule: Q01DX009 (ip), vehicle: water 94 % of control | dose: 1.56 mg/kg/injection, schedule: Q01DX009 (ip), vehicle: water 116 % of control and 118 % of control

CCOC(=O)N1CCc2cc(OC)c(OC)cc2/C1=C/c1ccsc1
inactive: [1] 105 % of control | [2] 102 % of control | [3] 96 % of control

CCOC(=O)C1=C(C)OC(C)(/N=C(\C#N)C(=O)OC)C1c1ccccc1 (stereo unspecified)
inactive: dose: 60.0 mg/kg/injection, schedule: Q01DX005 (ip), vehicle: saline with Tween-80 93 % of control | dose: 120.0 mg/kg/injection, schedule: Q01DX005 (ip), vehicle: saline with Tween-80 95 % of control | dose: 240.0 mg/kg/injection, schedule: Q01DX005 (ip), vehicle: saline with Tween-80 98 % of control

O=C(Nc1ccccc1)OC(CN1CCCCC1)C(CN1CCCCC1)OC(=O)Nc1ccccc1 (stereo unspecified)
inactive: dose: 12.5 mg/kg/injection, schedule: Q01DX005 (ip), vehicle: Klucel (hydroxypropylcellulose) (HPC) 99 % of control | dose: 25.0 mg/kg/injection, schedule: Q01DX005 (ip), vehicle: Klucel (hydroxypropylcellulose) (HPC) 91 % of control | [3] 87 % of control

Cc1cc(C)c(N=Cc2cccs2)c(C)c1
inactive: dose: 12.5 mg/kg/injection, schedule: Q01DX009 (ip), vehicle: saline 107 % of control | dose: 25.0 mg/kg/injection, schedule: Q01DX009 (ip), vehicle: saline 111 % of control | dose: 50.0 mg/kg/injection, schedule: Q01DX009 (ip), vehicle: saline 101 % of control and 106 % of control | dose: 200.0 mg/kg/injection, schedule: Q01DX009 (ip), vehicle: saline 92 % of control

CC(C)S(=O)(=O)c1ccc(Cl)cc1[N+](=O)[O-]
inactive: dose: 50.0 mg/kg/injection, schedule: Q01DX009 (ip), vehicle: Klucel (hydroxypropylcellulose) (HPC) 100 % of control | dose: 100.0 mg/kg/injection, schedule: Q01DX009 (ip), vehicle: Klucel (hydroxypropylcellulose) (HPC) 99 % of control | dose: 200.0 mg/kg/injection, schedule: Q01DX009 (ip), vehicle: Klucel (hydroxypropylcellulose) (HPC) 99 % of control

Clc1ccc2c(NCCCCCCNc3ccnc4cc(Cl)ccc34)ccnc2c1
inactive: dose: 6.25 mg/kg/injection, schedule: Q01DX005 (ip), vehicle: saline with Tween-80 97 % of control | [4] 90 % of control | [5] 99 % of control | [6] 100 % of control | [7] 109 % of control

Nc1nc2scnc2c(=O)[nH]1
inactive: [4] 88 % of control | [5] 101 % of control | [6] 109 % of control and 97 % of control | [7] 102 % of control | [8] 112 % of control

COC(=O)C1=C(C(=O)OC)P2(c3ccccc3)(c3ccccc3)S/C(=N\P(C)(C)=S)N2C1(c1ccccc1)c1ccccc1
inactive: [1] 98 % of control | [2] 88 % of control | [3] 92 % of control

CS(=O)CC(=O)c1ccccn1 (stereo unspecified)
inactive: dose: 50.0 mg/kg/injection, schedule: Q01DX005 (ip), vehicle: saline 106 % of control | dose: 100.0 mg/kg/injection, schedule: Q01DX005 (ip), vehicle: saline 100 % of control | dose: 200.0 mg/kg/injection, schedule: Q01DX005 (ip), vehicle: saline 99 % of control

CC1(C=O)CCCC2(C)[C@@H]1CCC13CC(CO)C(CC[C@H]12)C3 (stereo partly specified)
inactive: dose: 1.63 mg/kg/injection, schedule: Q01DX005 (ip), vehicle: Klucel (hydroxypropylcellulose) (HPC) 86 % of control | dose: 3.25 mg/kg/injection, schedule: Q01DX005 (ip), vehicle: Klucel (hydroxypropylcellulose) (HPC) 88 % of control

CC(=O)C1=C([Si](C)(C)C)N=NC1(C)C
inactive: [6] 111 % of control | [7] 109 % of control | [8] 102 % of control

COc1cc2oc(=O)cc(C)c2cc1N
inactive: dose: 50.0 mg/kg/injection, schedule: Q04DX002 (ip), vehicle: suspension in saline 109 % of control | dose: 100.0 mg/kg/injection, schedule: Q04DX002 (ip), vehicle: suspension in saline 99 % of control | dose: 200.0 mg/kg/injection, schedule: Q04DX002 (ip), vehicle: suspension in saline 106 % of control

C[Si]1(C)CC[Si](C)(C)S1
inactive: [6] 103 % of control | [7] 108 % of control
